Test results from ChEMBL document CHEMBL5120866, “Design and Synthesis of Novel Celastrol Derivatives as Potential Anticancer Agents against Gastric Cancer Cells” (J Nat Prod, 2022).

What was measured:
BGC-823 [1] = assay: Antiproliferative activity against human BGC-823 cells assessed as cell growth inhibition incubated for 48 hrs by MTT assay; type: functional, cell-based; conditions: BGC-823, 48 h
HCT-116 = assay: Antiproliferative activity against human HCT-116 cells assessed as cell growth inhibition incubated for 48 hrs by MTT assay; type: functional, cell-based; conditions: HCT-116, 48 h
HepG2 = assay: Antiproliferative activity against human HepG2 cells assessed as cell growth inhibition incubated for 48 hrs by MTT assay; type: functional, cell-based; conditions: HepG2, 48 h
MCF7 = assay: Antiproliferative activity against human MCF7 cells assessed as cell growth inhibition incubated for 48 hrs by MTT assay; type: functional, cell-based; conditions: MCF7, 48 h
HeLa = assay: Antiproliferative activity against human HeLa cells assessed as cell growth inhibition incubated for 48 hrs by MTT assay; type: functional, cell-based
BGC-823 [2] = assay: Antiproliferative activity against human BGC-823 cells assessed as cell growth inhibition at 0.5 uM incubated for 48 hrs by MTT assay relative to control; type: functional
BGC-823 [3] = assay: Induction of apoptosis in human BGC-823 cells assessed as viable cells at 1 uM incubated for 24 hrs by annexin-V-FITC and PI staining based flow cytometry analysis (reference value: 96.3%); type: functional; conditions: read-out: Activity
BGC-823 [4] = assay: Induction of apoptosis in human BGC-823 cells assessed as early apoptotic cells at 1 uM incubated for 24 hrs by annexin-V-FITC and PI staining based flow cytometry analysis (reference value: 2.4%); type: functional
BGC-823 [5] = assay: Induction of apoptosis in human BGC-823 cells assessed as late apoptotic cells at 1 uM incubated for 24 hrs by annexin-V-FITC and PI staining based flow cytometry analysis (reference value: 0.6%); type: functional
BGC-823 [6] = assay: Induction of apoptosis in human BGC-823 cells assessed as necrotic cells at 1 uM incubated for 24 hrs by annexin-V-FITC and PI staining based flow cytometry analysis (reference value: 0.6%); type: functional
BGC-823 [7] = assay: Antitumor activity against human BGC-823 cells xenografted in athymic BALB/c nude mouse assessed as tumor growth inhibition rate at 1.5 mg/kg, ip measured every 2 days for 21 days by curson caliper method relative to control; type: functional; conditions: BGC-823, 504 h, time 21 day, read-out: TGI

Row | IC50 (BGC-823 [1]) | IC50 (HCT-116) | IC50 (HepG2) | IC50 (MCF7) | IC50 (HeLa) | Structure (SMILES) | inhibition at 0.5 µM (BGC-823 [2]) | viability at 1 µM (BGC-823 [3]) | Activity (BGC-823 [4]) | Activity (BGC-823 [5]) | Activity (BGC-823 [6]) | inhibition in vivo at 1.5 mg/kg (BGC-823 [7])
1 | 340 nM | 690 nM | 820 nM | 840 nM | 820 nM | COC(=O)c1cnn(CCCCOC(=O)[C@]2(C)CC[C@]3(C)CC[C@]4(C)C5=CC=C6C(=CC(=O)C(O)=C6C)[C@]5(C)CC[C@@]4(C)[C@@H]3C2)c1 | > 50% | – | – | – | – | –
2 | 330 nM | 530 nM | 700 nM | 720 nM | 750 nM | CCOC(=O)c1cnn(CCCCOC(=O)[C@]2(C)CC[C@]3(C)CC[C@]4(C)C5=CC=C6C(=CC(=O)C(O)=C6C)[C@]5(C)CC[C@@]4(C)[C@@H]3C2)c1 | > 50% | – | – | – | – | –
3 | 460 nM | 640 nM | 480 nM | 740 nM | 880 nM | CC1=C(O)C(=O)C=C2C1=CC=C1[C@@]2(C)CC[C@@]2(C)[C@@H]3C[C@](C)(C(=O)OCCCCn4cc([N+](=O)[O-])cn4)CC[C@]3(C)CC[C@]12C | > 50% | – | – | – | – | –
4 | 430 nM | 880 nM | 840 nM | 1000 nM | 910 nM | CC1=C(O)C(=O)C=C2C1=CC=C1[C@@]2(C)CC[C@@]2(C)[C@@H]3C[C@](C)(C(=O)OCCCCn4cc(C)cn4)CC[C@]3(C)CC[C@]12C | > 50% | – | – | – | – | –
5 | 470 nM | 890 nM | 860 nM | 1100 nM | 1100 nM | CC1=C(O)C(=O)C=C2C1=CC=C1[C@@]2(C)CC[C@@]2(C)[C@@H]3C[C@](C)(C(=O)OCCCCn4cccn4)CC[C@]3(C)CC[C@]12C | > 50% | – | – | – | – | –
6 | 280 nM | 590 nM | 390 nM | 520 nM | 610 nM | COC(=O)c1cnn(CCCOC(=O)[C@]2(C)CC[C@]3(C)CC[C@]4(C)C5=CC=C6C(=CC(=O)C(O)=C6C)[C@]5(C)CC[C@@]4(C)[C@@H]3C2)c1 | > 50% | – | – | – | – | –

Row | Structure (SMILES) | IC50 (BGC-823 [1]) | IC50 (HCT-116) | IC50 (HepG2) | IC50 (MCF7) | IC50 (HeLa) | inhibition at 0.5 µM (BGC-823 [2]) | viability at 1 µM (BGC-823 [3]) | Activity (BGC-823 [4]) | Activity (BGC-823 [5]) | Activity (BGC-823 [6]) | inhibition in vivo at 1.5 mg/kg (BGC-823 [7])
7 | CC1=C(O)C(=O)C=C2C1=CC=C1[C@@]2(C)CC[C@@]2(C)[C@@H]3C[C@](C)(C(=O)O)CC[C@]3(C)CC[C@]12C [CELASTROL] | 1100 nM | 1900 nM | 1500 nM | 1700 nM | 1700 nM | – | 79.7% | 16.1% | 4% | 0.2% | 76.5%
